Reference: EP0828725B1, “PROCESS FOR THE RECOVERY OF ASCORBIC ACID” (YISSUM RESEARCH DEVELOPMENT COMPANY OF THE HEBREW …, priority 1995, dated 1996)

What was measured:
[1] = Distribution curves, extractant 1.2 mol/kg tricaprylyl amine (50%) and 3.8 mol/kg octanol (50%) (Fig. 3); assay type: physicochemical; conditions: extraction at 25°C and back-extraction at 96°C
Experimental: Fig. 3 illustrates distribution curves for extraction by an extractant composed of 1.2 mol/kg tricaprylyl amine (50%) and 3.8 mol/kg octanol (50%). The loading of the extractant in contact with 0.2 mol/kg ascorbic acid containing aqueous solution is about 0.5 mol/kg. […] The effect is even more impressive at the low concentrations end. […] A concentration factor of about 4 can be reached on extraction at 25°C and back-extraction at 96°C.

[2] = Temperature sensitivity of carboxylic acid extraction by 0.5 mol/kg Alamine 304 + 10% octanol in kerosene; assay type: physicochemical; conditions: distribution coefficient at 30°C divided by that at 75°C; for TS in Equilibrium with Aqueous Solutions of (mol/kg) 0.05: aqueous phase 0.05 mol/kg; for TS in Equilibrium with Aqueous Solutions of (mol/kg) 0.2: aqueous phase 0.2 mol/kg; for TS in Equilibrium with Aqueous Solutions of (mol/kg) 0.3: aqueous phase 0.3 mol/kg; for TS in Equilibrium with Aqueous Solutions of (mol/kg) 0.475: aqueous phase 0.475 mol/kg
Text: Referring now to said patents and the teachings thereof, one finds that the process taught therein utilizes the effect of temperature on phosphoric and carboxylic acid extraction by amine-based extractants. The term "amine" as used herein means water-immiscible amine, with a total of at least 20 carbon atoms on its chains. Said patents teach that such amine-based extractants (ABE) lose much of their extraction efficiency upon temperature elevation. This loss of efficiency is referred to as "temperature sensitivity of extraction" (TS). The magnitude of this TS can be represented by the ratio of the distribution coefficient at the lower temperature (DT1) and the distribution coefficient at the higher temperature (DT2). High TS provides for the purification and the concentration of carboxylic acids through altering the temperature between extraction and back-extraction. The acid is extracted from the fermentation liquor by an ABE at low temperature, and is then back-extracted with water at an elevated temperature. The aqueous solution obtained from that back-extraction is, in many cases, more concentrated than in the fermentation liquor. This process is referred to herein as the "temperature swing process" (TSP). The attraction of such processes is in the fact that the sole energy consumption is that of sensible heat, which saves a lot of the latent heat of water evaporation in the final concentration.

[3] = cited from earlier work
[4] = Extraction at 25°C and stripping at about 96°C with 50% w/w tridodecylamine and 50% w/w 1-n-octanol, recycled extractant; assay type: physicochemical; conditions: practically complete extraction with recycled extractant; feed 0.22 mol/kg
Experimental: […]. […] […]. The extractant was composed of 50% w/w tridodecylamine and 50% w/w of 1-n-octanol. The extraction was conducted at 25°C and the stripping at about 96°C.
Extraction as in Example 12 (100 g aqueous, 40 g extractant, 3 countercurrent stages) results in practically complete extraction of the acid to form an extract (loaded extractant) comprising 5% w/w lactic acid. […]. About two-thirds of the extracted lactic acid stays in the organic phase. Re-use of this organic phase in extraction from 2% lactic acid solutions results in low yields; not more than 20% of the acid is extracted. Increasing the number of stages in extraction has only a small effect. Near complete stripping and thus high yield in re-use of the organic phase requires about 150 g water per 40 g of extract, and 6-7 countercurrent stages. […]
Stripping the extract at 96°C with 35 g water results in an aqueous solution comprising 0.6 mol/kg ascorbic acid and an organic phase practically free of ascorbic acid. Re-use of this organic phase in extraction provides an extraction yield of at least 95% at the above conditions.

[5] = Distribution curves, extractant 1.2 mol/kg tricaprylyl amine and 2.4 mol/kg octanol in kerosene (Fig. 2); assay type: physicochemical; conditions: temperature gradient of 25-80°C

| Structure (SMILES) | temperature sensitivity [1] | TS in Equilibrium with Aqueous Solutions of (mol/kg) 0.05 [2] | TS in Equilibrium with Aqueous Solutions of (mol/kg) 0.2 [2] | TS in Equilibrium with Aqueous Solutions of (mol/kg) 0.3 [2] | TS in Equilibrium with Aqueous Solutions of (mol/kg) 0.475 [2] | pKa [3] | product diluted compared with the feed [4] [times] | uphill concentration factor [5] |
| --- | --- | --- | --- | --- | --- | --- | --- | --- |
| O=C(O)CC(O)(CC(=O)O)C(=O)O [Citric, citric acid] | Practically no temperature sensitivity | 6.0 | 3.1 | 2.6 | 2.2 | – | – | – |
| O=C(O)[C@H](O)[C@@H](O)[C@H](O)[C@H](O)CO [Gluconic] | – | 2.1 | 2.3 | 2.4 | 2.6 | – | – | – |
| O=C(O)CCCC(=O)O [Glutaric] | – | 3.9 | 4.5 | 4.5 | 4.4 | 4.4 | – | – |
| CC(C)C(=O)O [Isobutyric] | – | 1.9 | 1.5 | 1.4 | 1.1 | – | – | – |
| CC(O)C(=O)O (stereo not drawn) [Lactic, lactic acid] | – | 2.5 | 2.4 | 2.4 | 2.2 | – | 4 | – |
| O=C(O)/C=C\C(=O)O [Maleic] | – | 1.1 | 1.0 | 1.0 | 1.0 | – | – | – |
| O=C(O)CC(O)C(=O)O (stereo not drawn) [Malic] | – | 4.0 | 4.3 | 4.0 | 4.0 | 3.22 | – | – |
| O=C(O)CC(=O)O [Malonic] | – | 3.6 | 1.5 | 1.3 | 1.1 | – | – | – |
| O=C(O)CCC(=O)O [Succinic, succinic acid] | – | 4.3 | 4.0 | 4.0 | 4.1 | – | – | about 2 |
| O=C(O)C(O)C(O)C(=O)O (stereo not drawn) [Tartaric] | – | 3.4 | 3.2 | 2.7 | 2.4 | – | – | – |
